Laboratory results taken from ChEMBL document CHEMBL5465560, “Selectivity Literature for EUbOPEN Chemogenomic Library” (2024).

Key:
[1] = target: T1, Protein arginine N-methyltransferase 1 (Homo sapiens, UniProt Q99873); test: Selectivity interaction (Western blot assay (PRMT1 dependent H4R3 asymmetric arginine dimethylation)) EUB0000236b PRMT1
[2] = target: Protein arginine N-methyltransferase 5 (Homo sapiens, UniProt O14744); test: Selectivity interaction (Western blot assay (PRMT5 dependent SmB symmetric arginine dimethylation)) EUB0000236b PRMT5
[3] = target: T2, Histone-arginine methyltransferase CARM1 (Homo sapiens, UniProt Q86X55); test: Selectivity interaction (Western blot assay (PRMT4 dependent BAF155 asymmetric arginine dimethylation)) EUB0000236b CARM1
T2 sequence (Q86X55 whole entry): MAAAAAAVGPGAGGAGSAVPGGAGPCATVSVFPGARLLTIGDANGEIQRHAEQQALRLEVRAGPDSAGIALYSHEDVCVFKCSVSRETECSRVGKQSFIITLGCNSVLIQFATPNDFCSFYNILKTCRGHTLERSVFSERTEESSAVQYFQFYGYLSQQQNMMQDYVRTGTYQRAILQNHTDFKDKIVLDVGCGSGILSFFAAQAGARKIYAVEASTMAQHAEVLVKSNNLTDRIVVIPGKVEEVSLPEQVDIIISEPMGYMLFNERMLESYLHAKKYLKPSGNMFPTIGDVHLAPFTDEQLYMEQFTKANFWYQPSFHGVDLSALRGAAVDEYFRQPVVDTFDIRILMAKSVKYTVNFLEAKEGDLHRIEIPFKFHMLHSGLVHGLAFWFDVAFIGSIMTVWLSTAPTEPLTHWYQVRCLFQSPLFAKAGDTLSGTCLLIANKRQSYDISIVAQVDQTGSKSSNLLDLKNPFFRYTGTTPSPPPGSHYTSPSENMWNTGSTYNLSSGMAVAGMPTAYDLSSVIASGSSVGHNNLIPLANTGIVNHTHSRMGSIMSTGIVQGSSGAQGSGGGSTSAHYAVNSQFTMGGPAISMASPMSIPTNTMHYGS

[4] = target: T3, Protein arginine N-methyltransferase 6 (Homo sapiens, UniProt Q96LA8); test: Selectivity interaction (Western blot assay (PRMT6 dependent H4R3 asymmetric arginine dimethylation)) EUB0000236b PRMT6
[5] = target: T4, Protein arginine N-methyltransferase 9 (Homo sapiens, UniProt Q6P2P2); test: Selectivity interaction (Western blot assay (PRMT9 dependent SAP145 […] arginine dimethylation)) EUB0000236b PRMT9
T4 sequence (Q6P2P2 whole entry): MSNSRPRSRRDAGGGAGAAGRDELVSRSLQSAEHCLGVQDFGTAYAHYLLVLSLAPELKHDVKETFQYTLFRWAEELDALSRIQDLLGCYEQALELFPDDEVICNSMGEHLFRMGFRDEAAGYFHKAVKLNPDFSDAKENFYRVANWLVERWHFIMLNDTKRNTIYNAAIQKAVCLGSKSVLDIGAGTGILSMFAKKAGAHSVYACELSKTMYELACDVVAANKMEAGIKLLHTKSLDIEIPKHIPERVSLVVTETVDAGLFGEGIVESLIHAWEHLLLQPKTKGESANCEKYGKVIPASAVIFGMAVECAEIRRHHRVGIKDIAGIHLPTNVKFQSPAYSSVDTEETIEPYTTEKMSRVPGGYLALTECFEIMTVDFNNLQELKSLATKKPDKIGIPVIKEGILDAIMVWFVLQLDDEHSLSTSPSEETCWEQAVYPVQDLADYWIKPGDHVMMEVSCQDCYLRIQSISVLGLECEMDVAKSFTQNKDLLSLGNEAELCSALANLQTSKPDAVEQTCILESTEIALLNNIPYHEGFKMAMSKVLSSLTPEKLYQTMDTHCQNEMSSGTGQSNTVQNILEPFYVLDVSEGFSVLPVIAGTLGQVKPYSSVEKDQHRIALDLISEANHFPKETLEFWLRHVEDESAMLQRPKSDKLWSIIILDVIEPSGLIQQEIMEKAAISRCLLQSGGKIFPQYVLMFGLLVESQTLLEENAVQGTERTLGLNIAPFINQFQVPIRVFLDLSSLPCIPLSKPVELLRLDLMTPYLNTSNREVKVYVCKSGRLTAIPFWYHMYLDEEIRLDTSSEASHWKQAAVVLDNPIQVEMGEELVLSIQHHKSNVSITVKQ

[6] = target: Histone-lysine N-methyltransferase, H3 lysine-79 specific (Homo sapiens, UniProt Q8TEK3); test: Selectivity interaction (Western blot assay (DOT1L dependent H3K79 lysine dimethylation) ) EUB0000236b DOT1L
[7] = target: T2, Histone-arginine methyltransferase CARM1; test: Selectivity interaction (Scintillation proximity assay) EUB0000261b CARM1
[8] = target: Protein arginine N-methyltransferase 8 (Homo sapiens, UniProt Q9NR22); test: Selectivity interaction (Scintillation proximity assay) EUB0000261b PRMT8
[9] = target: Protein arginine N-methyltransferase 3 (Homo sapiens, UniProt O60678); test: Selectivity interaction (Scintillation proximity assay) EUB0000261b PRMT3
[10] = target: T1, Protein arginine N-methyltransferase 1; test: Selectivity interaction (Scintillation proximity assay) EUB0000261b PRMT1
[11] = target: T3, Protein arginine N-methyltransferase 6; test: Selectivity interaction (Scintillation proximity assay) EUB0000261b PRMT6

T1 sequence (Q99873 whole entry): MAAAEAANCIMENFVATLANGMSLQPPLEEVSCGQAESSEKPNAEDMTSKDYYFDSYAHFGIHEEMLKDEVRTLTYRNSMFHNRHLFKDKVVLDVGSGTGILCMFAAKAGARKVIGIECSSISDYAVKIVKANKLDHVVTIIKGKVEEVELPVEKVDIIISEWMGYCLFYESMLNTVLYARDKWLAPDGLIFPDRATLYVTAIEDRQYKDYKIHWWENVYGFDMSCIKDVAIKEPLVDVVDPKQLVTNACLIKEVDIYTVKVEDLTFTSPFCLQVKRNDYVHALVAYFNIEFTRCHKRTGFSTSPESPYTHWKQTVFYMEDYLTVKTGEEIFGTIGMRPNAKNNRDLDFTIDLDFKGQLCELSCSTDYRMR
T3 sequence (Q96LA8 whole entry): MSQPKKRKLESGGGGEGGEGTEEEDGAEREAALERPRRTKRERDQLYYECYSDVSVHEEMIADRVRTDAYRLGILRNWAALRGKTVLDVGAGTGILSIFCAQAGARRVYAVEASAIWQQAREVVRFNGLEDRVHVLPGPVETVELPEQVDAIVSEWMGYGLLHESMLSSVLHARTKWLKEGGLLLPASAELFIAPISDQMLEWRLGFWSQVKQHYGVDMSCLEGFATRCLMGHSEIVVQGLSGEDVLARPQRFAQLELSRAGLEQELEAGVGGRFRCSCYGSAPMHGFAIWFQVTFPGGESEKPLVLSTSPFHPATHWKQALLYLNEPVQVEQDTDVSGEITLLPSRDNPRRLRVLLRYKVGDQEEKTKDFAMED
Sequence of Histone-lysine N-methyltransferase, H3 lysine-79 specific (Q8TEK3 whole entry): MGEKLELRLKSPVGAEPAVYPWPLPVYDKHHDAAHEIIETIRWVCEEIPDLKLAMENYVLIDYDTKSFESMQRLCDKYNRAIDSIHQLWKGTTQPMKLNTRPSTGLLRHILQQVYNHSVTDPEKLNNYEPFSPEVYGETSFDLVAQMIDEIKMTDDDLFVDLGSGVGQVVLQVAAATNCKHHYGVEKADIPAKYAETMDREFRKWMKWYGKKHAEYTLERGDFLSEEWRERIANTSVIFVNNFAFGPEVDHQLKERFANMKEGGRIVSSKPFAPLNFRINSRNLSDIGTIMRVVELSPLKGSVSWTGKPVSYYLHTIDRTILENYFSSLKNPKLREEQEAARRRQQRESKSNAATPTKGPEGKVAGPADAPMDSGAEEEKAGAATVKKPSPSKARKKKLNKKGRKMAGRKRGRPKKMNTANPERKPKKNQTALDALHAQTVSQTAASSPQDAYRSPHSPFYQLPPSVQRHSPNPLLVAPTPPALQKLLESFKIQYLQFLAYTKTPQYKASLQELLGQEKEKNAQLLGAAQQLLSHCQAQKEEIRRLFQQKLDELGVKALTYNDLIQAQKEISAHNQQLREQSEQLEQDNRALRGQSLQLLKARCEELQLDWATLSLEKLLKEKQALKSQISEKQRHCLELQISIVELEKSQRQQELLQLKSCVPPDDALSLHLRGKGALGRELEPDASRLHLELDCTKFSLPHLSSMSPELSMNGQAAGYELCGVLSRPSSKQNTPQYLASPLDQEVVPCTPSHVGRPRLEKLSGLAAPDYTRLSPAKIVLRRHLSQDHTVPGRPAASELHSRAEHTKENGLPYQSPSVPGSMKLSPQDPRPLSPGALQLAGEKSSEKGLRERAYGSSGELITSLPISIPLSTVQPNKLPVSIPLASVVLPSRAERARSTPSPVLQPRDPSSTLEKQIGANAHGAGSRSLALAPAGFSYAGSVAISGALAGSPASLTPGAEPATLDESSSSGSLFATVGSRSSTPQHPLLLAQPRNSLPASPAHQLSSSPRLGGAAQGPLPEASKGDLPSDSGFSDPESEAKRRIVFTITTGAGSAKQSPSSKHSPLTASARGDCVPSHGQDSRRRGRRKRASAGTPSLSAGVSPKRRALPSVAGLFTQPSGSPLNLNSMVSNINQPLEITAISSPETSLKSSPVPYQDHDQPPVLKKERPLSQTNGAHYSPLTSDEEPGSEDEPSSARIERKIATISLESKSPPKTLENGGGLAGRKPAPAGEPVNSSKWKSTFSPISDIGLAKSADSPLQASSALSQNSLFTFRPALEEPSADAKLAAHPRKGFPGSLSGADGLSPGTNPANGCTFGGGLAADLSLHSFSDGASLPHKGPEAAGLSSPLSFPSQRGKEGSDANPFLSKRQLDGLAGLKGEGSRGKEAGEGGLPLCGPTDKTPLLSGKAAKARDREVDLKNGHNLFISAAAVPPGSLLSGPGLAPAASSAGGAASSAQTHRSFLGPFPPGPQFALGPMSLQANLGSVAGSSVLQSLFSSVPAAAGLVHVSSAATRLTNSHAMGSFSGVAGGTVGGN
Sequence of Protein arginine N-methyltransferase 5 (O14744 whole entry): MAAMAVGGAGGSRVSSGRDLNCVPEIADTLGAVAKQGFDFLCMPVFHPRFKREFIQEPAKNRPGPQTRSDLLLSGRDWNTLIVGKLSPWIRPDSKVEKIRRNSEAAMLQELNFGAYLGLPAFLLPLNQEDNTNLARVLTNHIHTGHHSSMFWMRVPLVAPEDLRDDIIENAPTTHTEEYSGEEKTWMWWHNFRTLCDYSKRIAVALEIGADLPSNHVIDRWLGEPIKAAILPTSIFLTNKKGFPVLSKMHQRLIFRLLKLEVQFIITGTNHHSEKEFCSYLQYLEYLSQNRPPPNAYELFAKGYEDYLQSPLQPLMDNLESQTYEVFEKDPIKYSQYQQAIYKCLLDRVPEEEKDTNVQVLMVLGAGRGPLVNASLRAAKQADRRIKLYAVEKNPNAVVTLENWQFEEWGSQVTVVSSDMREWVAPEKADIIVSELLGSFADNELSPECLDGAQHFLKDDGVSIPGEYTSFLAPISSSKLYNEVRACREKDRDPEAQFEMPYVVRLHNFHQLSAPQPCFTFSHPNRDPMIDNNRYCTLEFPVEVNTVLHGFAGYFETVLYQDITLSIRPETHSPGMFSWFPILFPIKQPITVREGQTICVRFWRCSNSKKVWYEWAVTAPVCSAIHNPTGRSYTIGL
Sequence of Protein arginine N-methyltransferase 8 (Q9NR22 whole entry): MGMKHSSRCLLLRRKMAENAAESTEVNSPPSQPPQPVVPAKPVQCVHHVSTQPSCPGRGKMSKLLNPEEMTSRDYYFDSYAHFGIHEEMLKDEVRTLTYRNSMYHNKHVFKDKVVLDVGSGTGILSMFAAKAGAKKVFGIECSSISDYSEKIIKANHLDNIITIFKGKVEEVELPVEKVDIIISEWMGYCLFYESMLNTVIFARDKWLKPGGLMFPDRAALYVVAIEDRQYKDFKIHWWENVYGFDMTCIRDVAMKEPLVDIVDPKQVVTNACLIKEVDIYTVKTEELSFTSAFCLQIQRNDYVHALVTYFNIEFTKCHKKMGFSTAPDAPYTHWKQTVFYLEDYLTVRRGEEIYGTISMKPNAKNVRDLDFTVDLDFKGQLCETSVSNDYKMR
Sequence of Protein arginine N-methyltransferase 3 (O60678 whole entry): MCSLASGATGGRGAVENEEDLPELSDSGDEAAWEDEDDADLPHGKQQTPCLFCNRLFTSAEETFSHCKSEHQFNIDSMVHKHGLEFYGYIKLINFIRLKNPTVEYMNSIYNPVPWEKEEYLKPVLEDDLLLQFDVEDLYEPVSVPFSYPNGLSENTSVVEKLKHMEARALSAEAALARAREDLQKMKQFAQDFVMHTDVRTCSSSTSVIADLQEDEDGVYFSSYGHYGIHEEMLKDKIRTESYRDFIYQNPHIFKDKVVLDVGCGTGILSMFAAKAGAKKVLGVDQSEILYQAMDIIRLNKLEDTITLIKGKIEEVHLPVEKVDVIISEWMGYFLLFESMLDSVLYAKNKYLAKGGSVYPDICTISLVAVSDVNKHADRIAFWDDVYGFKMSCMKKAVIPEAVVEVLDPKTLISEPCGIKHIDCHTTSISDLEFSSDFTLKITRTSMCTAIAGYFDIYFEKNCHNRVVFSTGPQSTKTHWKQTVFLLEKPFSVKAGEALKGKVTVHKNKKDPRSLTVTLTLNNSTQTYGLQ

EC50 [1] [nM]	EC50 [2] [nM]	EC50 [3] [nM]	EC50 [4] [nM]	EC50 [5] [nM]	EC50 [6] [nM]	IC50 [7] [µM]	IC50 [8] [µM]	IC50 [9] [µM]	IC50 [10] [µM]	IC50 [11] [µM]	Compound
> 5	> 5	> 5	> 5	> 5	> 5	–	–	–	–	–	CC1=C(C)C(=O)C(C(C)(C)CC(=O)N(CCCCSC[C@H]2O[C@@H](n3cnc4c(N)ncnc43)[C@@H]3OC(C)(C)O[C@@H]32)Cc2cccc(-c3ccc(Cl)cc3)c2)=C(C)C1=O
–	–	–	–	–	–	> 20	> 20	> 20	> 20	> 20	CC(C)Oc1ccc(-c2c[nH]cc2CN(C)CCO)cc1
